Experimental data: patent US10988465B2, “CXCR4 inhibitors and uses thereof” (X4 Pharmaceuticals, Inc., priority 2016, dated 2021)

Key:
in vitro = conditions: human, Caco-2, pH 7.4
Method in brief: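 Bidirectional permeability across Caco-2 monolayers in HBSS (pH 7.4) at a test concentration of 10 μM, incubated 0 and 90 min at 37° C (n=2). Monolayer integrity was assessed by TEER and Lucifer yellow. Papp was derived from LC-MS/MS-measured concentrations.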

[1] = target: T1, CXCR-4 transfected U87 cell line (U87.CXCR4) (Homo sapiens, UniProt P61073); assay: Intracellular CXCL-12-induced calcium mobilization assay (FLIPR); format: cell-based; conditions: U87.CXCR4 cells; CXCL-12 25-50 ng/mL; compound added 15 min before; read-out: IC50 CXCL-12 Ca^2+ flux U87.CXCR4+
T1 construct: expressed in transfected cells; host or cells: U87 (U87.CXCR4)
T1 sequence (P61073 whole entry): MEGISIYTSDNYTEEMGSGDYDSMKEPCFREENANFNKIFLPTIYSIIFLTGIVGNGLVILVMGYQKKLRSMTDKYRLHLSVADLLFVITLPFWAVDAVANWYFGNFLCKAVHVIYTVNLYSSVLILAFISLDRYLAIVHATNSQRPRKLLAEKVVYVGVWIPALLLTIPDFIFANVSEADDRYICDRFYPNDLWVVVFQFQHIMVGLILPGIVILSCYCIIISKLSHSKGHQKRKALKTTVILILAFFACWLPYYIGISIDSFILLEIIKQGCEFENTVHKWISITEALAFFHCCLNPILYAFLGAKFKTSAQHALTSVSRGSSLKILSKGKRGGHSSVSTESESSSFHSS
Method in brief: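 CXCL-12 (25-50 ng/mL) was the stimulus, and the intracellular calcium rise was tracked kinetically by FLIPR at 37 °C. Cells were U87.CXCR4 transfectants pre-loaded 45 min at 37 °C with 4 μM (final) Fluo-2 AM in HEPES-buffered HBSS with 0.2% BSA, pH 7.4.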

[2] = target: T2, Jurkat cells expressing CXCR4 (Homo sapiens, UniProt P61073); assay: Chemokine (CXCL12-AF647) binding inhibition assay; conditions: CXCL12-AF647 25 ng/mL, read-out: IC50 CXCL-12 binding Jurkat
T2 construct: endogenous in cells; host or cells: Jurkat
T2 sequence (P61073 whole entry): as above
Method in brief: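 Cells in HBSS, 20 mM HEPES, 0.2% BSA, pH 7.4, preincubated 15 min at room temperature with compound, then 25 ng/mL CXCL12-AF647 for 30 min. After washing and paraformaldehyde fixation, bound ligand read by flow cytometry; percent inhibition calculated from MFI relative to unlabeled and ligand-only controls.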

| efflux ratio at 90 min, 10 μM (in vitro) | Compound | Papp A→B at 90 min, 10 μM (in vitro) [×10⁻⁶ cm/s] | Papp B→A at 90 min, 10 μM (in vitro) [×10⁻⁶ cm/s] | IC50 [1] [nM] | IC50 [2] [nM] |
| --- | --- | --- | --- | --- | --- |
|  | Cc1cccnc1[C@@H]1CCC[C@H](c2nc3cccc(N4CCN(C)CC4)c3[nH]2)N1C (racemic) [I-3, 2-((2R,6S)-1-methyl-6-(3-methylpyridin-2-yl)piperidin-2-yl)-7-(4-methylpiperazin-1-yl)-1H-benzo[d]imidazole] | 0.1 to 10 | 10 to 30 | 0.01 to 100 | 0.01 to 100 |
| 0.1 to 10 | CN1CCN(c2cccc3nc([C@H]4CCC[C@@H](c5ncccc5Cl)N4)[nH]c23)CC1 (racemic) [I-122] | 10 to 30 | 10 to 30 | 0.01 to 100 | 0.01 to 100 |
